From patent US12448371B2, “Inhibitor compounds” (Cincera Therapeutics Pty Ltd, priority 2019, dated 2025)
Where a name gives a salt, the structure may show the parent alone.

Key:
Des1 (h) = biological target: T1, Des1 (h) (Homo sapiens, UniProt O15121); assay: Measurement of Dihydroceramide Desaturase-1 (Des-1) activity in intact Jurkat cells labeled with DhCer-C6-NBD (HPLC); assay type: cell-based; settings: for inhibition at 1 µM: Jurkat cells; for IC50: intact Jurkat cells, given as concentration range, or <X / >X if measured at one concentration X only, read-out: Des1 (h) Jurkat IC50
T1 construct: endogenous in cells; host or cells: parental Jurkat cells
T1 sequence (O15121 1-323): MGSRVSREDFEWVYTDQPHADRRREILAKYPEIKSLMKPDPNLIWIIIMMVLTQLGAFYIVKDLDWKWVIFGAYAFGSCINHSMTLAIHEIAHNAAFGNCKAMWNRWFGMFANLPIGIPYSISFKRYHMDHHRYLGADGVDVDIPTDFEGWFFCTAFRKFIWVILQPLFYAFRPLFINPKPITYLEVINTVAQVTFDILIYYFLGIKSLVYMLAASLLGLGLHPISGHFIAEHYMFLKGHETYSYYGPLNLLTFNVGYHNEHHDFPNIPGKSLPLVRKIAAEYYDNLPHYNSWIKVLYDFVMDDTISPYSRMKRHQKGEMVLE
In short: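 Intact parental Jurkat cells in 0.5% serum medium were labelled with DhCer-C6-NBD; cells harvested at 500×g and ceramides extracted. NBD-labelled substrate and product resolved by C18 reverse-phase HPLC and quantified by fluorescence (ex 465/em 530 nm) as a measure of Des-1 activity.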

[1] = test system: Connective Tissue Growth Factor (CTGF) gene expression; assay: Real time quantitative PCR in TGFβ-stimulated human hepatic stellate cells (LX2) to detect CTGF gene expression; assay type: cell-based; settings: CTGF mRNA in TGFβ-stimulated LX2 cells vs vehicle control; for inhibition at 5 µM: LX-2, 5 μM; for inhibition at 1 µM: LX-2, 1 μM; for inhibition at 10 µM: LX-2, 10 μM
Protocol: Real Time Quantitative Polymerase Chain Reaction in Human Hepatic Stellate Cells (LX2) to Detect Connective Tissue Growth Factor (CTGF) Gene Expression The hepatic stellate cell line, LX2 was maintained in DMEM (LifeTechnologies) with 2% heat-inactivated FBS, 100U penicillin (LifeTechnologies), 0.1 mg/mL streptomycin (LifeTechnologies), and 2 mM L-glutamine (LifeTechnologies) at 37° C. with 5% CO2. Cells were seeded into 6-well plates (200,000 cells per well, 2 mLs media) and grown overnight. The cells were changed to 2 mLs 0.5% FBS media for 24 hours prior to treatment. Treatments were added in 2 mLs fresh 0.5% FBS media (vehicle control, long/mL TGFβ alone (R&D Systems), 10 ng/mL TGFβ+inhibitors) and incubated for 24 hours. […] RNA was extracted using Qiagen RNeasy kit (cat #74104), according to manufacturer's instructions. RNA (1 μg) was used to generate cDNA using the Qiagen Quantitect Reverse Transcription Kit (cat #205311), and stored at -20° C. cDNA was diluted (1:25 final) and combined with Sybr Green (Qiagen cat #204143), forward and reverse primers (50 ng each) and run on Real Time PCR Thermocycler machine (RG-6000, Corbett) with the following PCR conditions: Hold 1: 50° C. for 2 min; Hold 2: 95° C. for 15 min; Cycling: 45 cycles of: 95° C. for 30 sec, 58° C. for 21 sec, 72° C. for 15 sec, Hold 3: 72° C. for 30 sec, Melt: 72° C. to 99° C. GAPDH primers (Forward: [NT]; Reverse: [NT] primers (Forward: [NT]; Reverse: [NT] primers available from Origene, cat #HP205671)].

SMILES | inhibition at 1 µM (Des1 (h)) [%] | IC50 (Des1 (h)) [µM] | inhibition at 5 µM [1] [%] | inhibition at 1 µM [1] [%] | inhibition at 10 µM [1] [%]
N/C(=N\O)c1cnc(Nc2ccn(-c3ccc(C(F)(F)F)cc3)n2)cn1 [Compound 111, N′-Hydroxy-5-((1-(4-(trifluoromethyl)phenyl)-1H-pyrazol-3-yl)amino)pyrazine-2-carboximidamide] | – | < 1 | > 90 | – | –
N/C(=N\O)c1ccc(Nc2cnn(-c3ccc(C(F)(F)F)cn3)c2)cn1 [Example 72, N′-Hydroxy-5-((1-(5-(trifluoromethyl)pyridin-2-yl)-1H-pyrazol-4-yl)amino)picolinimidamide] | – | < 1 | 50 to 60 | 40 to 50 | –
O=C(NCC(O)CO)c1ccc(Nc2ncc(-c3ccc(Cl)cn3)o2)cn1 (racemic) [Compound 116, rac-5-((5-(5-Chloropyridin-2-yl)oxazol-2-yl)amino)-N-(2,3-dihydroxypropyl)picolinamide hydrochloride] | – | < 1 | 70 to 80 | – | –
O=c1cc(Nc2ncc(-c3ccc(C(F)(F)F)cc3)o2)ccn1O [Example 23, 1-(Hydroxy)-4-((5-(4-(trifluoromethyl)phenyl)oxazol-2-yl)amino)pyridin-2(1H)-one] | – | 0.001 to 0.01 | – | 30 to 40 | > 90
N/C(=N\O)c1cnc(Nc2ncc(-c3ccc(C(F)(F)F)cc3)o2)cn1 [Example 54, N′-Hydroxy-5-((5-(4-(trifluoromethyl)phenyl)oxazol-2-yl)amino)pyrazine-2-carboximidamide] | – | 0.1 to 1 | – | 70 to 80 | 80 to 90
N/C(=N\O)c1cnc(Nc2ncn(-c3ccc(C(F)(F)F)cn3)n2)cn1 [Compound 108, N′-Hydroxy-5-((1-(5-(trifluoromethyl)pyridin-2-yl)-1H-1,2,4-triazol-3-yl)amino)pyrazine-2-carboximidamide] | – | < 1 | 40 to 50 | – | –
N/C(=N\O)c1ccc(Nc2ncc(-c3ccc(OC(F)(F)F)cn3)o2)cn1 [Compound 99, N′-Hydroxy-5-((5-(5-(trifluoromethoxy)pyridin-2-yl)oxazol-2-yl)amino)picolinimidamide] | 47 | > 1 | – | 1 to 10 | 70 to 80
N/C(=N\O)c1ccc(Nc2ncc(-c3ccc(OC(F)(F)F)cc3)o2)cn1 [Compound 118, N′-Hydroxy-5-((5-(4-(trifluoromethoxy)phenyl)oxazol-2-yl)amino)picolinimidamide] | – | < 1 | – | 50 to 60 | 70 to 80
N/C(=N\O)c1ccc(Nc2ncc(-c3ccc(Cl)cn3)o2)cn1 [Compound 90, 5-((5-(5-Chloropyridin-2-yl)oxazol-2-yl)amino)-N′-hydroxypicolinimidamide] | – | < 1 | > 90 | – | –

Further lines, with some results ahead:

inhibition at 1 µM (Des1 (h)) [%] | IC50 (Des1 (h)) [µM] | SMILES | inhibition at 5 µM [1] [%] | inhibition at 1 µM [1] [%] | inhibition at 10 µM [1] [%]
45 | > 1 | N/C(=N\O)c1ccc(Nc2nc(-c3ccc(C(F)(F)F)cn3)no2)cn1 [Example 84, N′-Hydroxy-5-((3-(5-(trifluoromethyl)pyridin-2-yl)-1,2,4-oxadiazol-5-yl)amino)picolinimidamide] | 80 to 90 | – | –
– | < 1 | N/C(=N\O)c1ccc(Nc2nc(-c3ccc(OC(F)(F)F)cc3)no2)cn1 [Example 86, N′-Hydroxy-5-((3-(4-(trifluoromethoxy)phenyl)-1,2,4-oxadiazol-5-yl)amino)picolinimidamide] | > 90 | – | –
– | < 1 | N/C(=N\O)c1ccc(Nc2cc(-c3ccc(C(F)(F)F)cc3)no2)cn1 [Example 89, N′-hydroxy-5-((3-(4-(trifluoromethyl)phenyl)isoxazol-5-yl)amino)picolinimidamide] | > 90 | – | –
– | < 1 | N/C(=N\O)c1ccc(Nc2ccn(-c3ccc(C(F)(F)F)cn3)n2)cn1 [Example 73, N′-Hydroxy-5-((1-(5-(trifluoromethyl)pyridin-2-yl)-1H-pyrazol-3-yl)amino)picolinimidamide] | > 90 | – | –
